{"source": "patent US20170224688A1", "about": "“Methods of Using BTK Inhibitors to Treat Dermatoses” (Acerta Pharma B.V., priority 2016, published 2017)", "key": {"[1]": {"system": "signals through the B cell receptor", "assay": "In vitro potency in whole blood: CD69 on CD19+ B cells after anti-human IgD", "format": "cell-based", "details": "blood of four healthy donors, 2 h with compound, anti-human IgD 10 μg/mL 18 h, flow cytometry, read-out: EC50, inhibition of CD69 on gated CD19+ B cells in whole blood", "experimental": "Blood from four healthy donors was incubated for 2 hours with the compounds shown over a concentration range, and then stimulated with anti-human IgD [10 μg/mL] for 18 hours. The mean fluorescent intensity (MFI) of CD69 (and CD86, data not shown) on gated CD19+ B cells was measured by flow cytometry."}, "psoriasis [2]": {"system": "psoriasis", "details": "patients treated for malignancies; cited from earlier work"}, "EGFR": {"biological_target": "EGFR (Homo sapiens, UniProt P00533)", "sequence (P00533 25-1210)": "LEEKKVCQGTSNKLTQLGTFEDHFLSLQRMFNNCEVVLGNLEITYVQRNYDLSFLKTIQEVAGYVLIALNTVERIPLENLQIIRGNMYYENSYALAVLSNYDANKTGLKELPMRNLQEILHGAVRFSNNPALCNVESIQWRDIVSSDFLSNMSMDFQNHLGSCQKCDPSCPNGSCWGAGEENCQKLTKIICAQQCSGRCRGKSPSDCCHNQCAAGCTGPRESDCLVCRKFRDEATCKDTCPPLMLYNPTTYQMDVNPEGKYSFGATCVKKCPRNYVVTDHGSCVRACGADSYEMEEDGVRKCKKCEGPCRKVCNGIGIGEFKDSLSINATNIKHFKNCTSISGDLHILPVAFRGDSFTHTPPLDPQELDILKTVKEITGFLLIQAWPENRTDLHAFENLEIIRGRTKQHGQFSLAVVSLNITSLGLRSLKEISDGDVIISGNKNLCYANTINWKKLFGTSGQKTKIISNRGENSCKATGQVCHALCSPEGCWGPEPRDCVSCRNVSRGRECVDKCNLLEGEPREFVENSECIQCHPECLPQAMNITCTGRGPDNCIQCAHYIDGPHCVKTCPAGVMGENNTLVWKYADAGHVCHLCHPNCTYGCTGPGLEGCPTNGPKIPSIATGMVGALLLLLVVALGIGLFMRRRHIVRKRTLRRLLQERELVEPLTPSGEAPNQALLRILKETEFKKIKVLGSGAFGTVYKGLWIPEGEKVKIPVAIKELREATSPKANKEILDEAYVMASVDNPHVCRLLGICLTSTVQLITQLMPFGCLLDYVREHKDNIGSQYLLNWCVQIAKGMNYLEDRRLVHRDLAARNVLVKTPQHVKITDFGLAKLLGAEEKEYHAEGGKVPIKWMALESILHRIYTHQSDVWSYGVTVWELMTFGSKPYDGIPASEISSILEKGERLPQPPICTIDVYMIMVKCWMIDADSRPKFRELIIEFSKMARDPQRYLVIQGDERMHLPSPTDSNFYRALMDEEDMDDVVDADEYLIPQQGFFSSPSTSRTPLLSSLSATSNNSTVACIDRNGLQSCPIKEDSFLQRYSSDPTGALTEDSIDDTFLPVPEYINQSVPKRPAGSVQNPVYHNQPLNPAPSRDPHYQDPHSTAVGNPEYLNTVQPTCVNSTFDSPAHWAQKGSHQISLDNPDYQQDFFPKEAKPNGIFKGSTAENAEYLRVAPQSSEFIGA", "assay": "EGF-induced EGFR phosphorylation in A431 cells (phosphoflow cytometry)", "details": "at 10 μM, A431 human epidermoid cancer cell line"}, "[3]": {"assay": "Preliminary evaluation of metabolism in plasma, bile, and urine", "format": "in vivo", "details": "rats, dogs, monkeys; preliminary evaluations"}, "[4]": {"assay": "Glutathione binding and depletion in vitro", "format": "in vitro ADME"}, "psoriasis [5]": {"system": "psoriasis", "assay": "Clinical observation of psoriasis in CLL patients on study drug", "format": "in vivo, human", "text": "(§1) Clinical studies have shown that targeting the BCR signaling pathway by inhibiting BTK produces significant clinical benefit in patients with various types of leukemias and lymphomas.\nThe secondary objective of the clinical study is to evaluate tumor responses in patients treated with Formula (II).\nThe study scheme is a sequential cohort escalation. Each cohort consists of six subjects. The sample size of the study is 24 to 36 subjects, depending on dose escalation into subsequent cohorts. […] The dose level for Cohort 6 will be determined based on the safety and efficacy of Cohorts 1 to 5, and will not exceed 900 mg/day. Escalation will end with either the MTD cohort or three levels above full BTK occupancy, whichever is observed first. An additional arm of the study will explore 100 mg BID dosing.\nThe color of the capsules is Swedish orange. The route of administration is oral (per os, or PO). The dose regimen is once daily or twice daily, as defined by the cohort, on an empty stomach (defined as no food 2 hours before and 30 minutes after dosing).\n(§2) Subject 1 in the clinical study of Example 12 is a CLL patient with a history of psoriatic skin disease. Subject 1 had psoriasis, without involvement of joints, and with diffuse plaques on their trunk and extremities. Their psoriasis was severe, with ˜30% body surface area (BSA) affected (>10% BSA is considered severe disease). They were treated over time with several systemic therapies including etanercept, adalimumab, and a 2010 clinical study of an experimental agent.\nWhen treatment with Formula (2) was initiated, Subject 1's skin symptoms started to improve rapidly. […] By Cycle 10 (10 months on Formula (2)), their skin was clear. […] The only remainder was some scaling in the same areas that were once affected by psoriasis lesions.\nSubject 2 was enrolled in a clinical study similar to that described above, and also experienced resolution of moderate-to-severe plaque psoriasis (a “florid” case) while on treatment with Formula (2). The subject's disease history included extensive body surface area involvement, mainly on the back and thighs, for most of their adult life."}, "CYP3A4": {"biological_target": "CYP3A4 (Homo sapiens, UniProt P08684)", "sequence (P08684 whole entry, species assumed)": "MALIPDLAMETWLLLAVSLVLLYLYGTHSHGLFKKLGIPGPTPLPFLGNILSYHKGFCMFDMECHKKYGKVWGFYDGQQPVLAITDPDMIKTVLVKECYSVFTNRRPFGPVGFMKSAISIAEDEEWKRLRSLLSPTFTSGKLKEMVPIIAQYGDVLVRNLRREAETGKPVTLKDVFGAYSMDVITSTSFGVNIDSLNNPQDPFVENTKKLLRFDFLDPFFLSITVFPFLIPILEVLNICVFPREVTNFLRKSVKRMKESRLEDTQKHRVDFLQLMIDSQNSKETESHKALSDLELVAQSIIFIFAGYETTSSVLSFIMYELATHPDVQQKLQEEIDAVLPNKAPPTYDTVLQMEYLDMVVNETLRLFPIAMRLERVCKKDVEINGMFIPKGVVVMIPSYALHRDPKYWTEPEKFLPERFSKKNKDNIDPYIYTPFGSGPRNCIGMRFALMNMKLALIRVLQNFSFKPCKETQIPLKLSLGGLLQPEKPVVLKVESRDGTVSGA", "assay": "Loss of parent drug as catalyzed by CYPs", "format": "in vitro ADME", "details": "in vitro"}, "[6]": {"assay": "Study of respiratory function (GLP safety pharmacology)", "details": "rats, doses through 300 mg/kg (highest dose level)"}, "[7]": {"system": "BCR activation markers CD69 and CD86", "assay": "In vivo potency: BCR activation markers after oral gavage", "details": "mice gavaged, sacrificed 3 h post-dose, BCR stimulated with IgM, flow cytometry (FIG. 1)", "experimental": "Mice were gavaged at increasing drug concentration and sacrificed at one time point (3 h post-dose). BCR is stimulated with IgM and the expression of activation markers CD69 and CD86 are monitored by flow cytometry to determine EC50's.\nCD86 and CD69 are cell surface proteins that are BCR activation markers. […] BCR was stimulated with IgM and the expression of activation marker CD69 and CD86 are monitored by flow cytometry and to determine EC50 values."}, "[8]": {"assay": "Oral bioavailability (preclinical characteristics)", "details": "in vivo", "text": "as §1"}, "hepatocytes": {"system": "hepatocytes", "assay": "In vitro metabolism in hepatocytes with 14C-labeled drug", "format": "in vitro ADME, mouse, rat, dog, rabbit, monkey, and human"}, "CYP enzymes": {"system": "CYP enzymes", "assay": "Nonclinical CYP interaction studies", "format": "in vitro ADME"}, "hematologic malignancies": {"system": "hematologic malignancies", "details": "cited from earlier work"}, "psoriasis [9]": {"system": "psoriasis", "assay": "Treatment history of Subject 1's psoriasis", "format": "in vivo, human", "details": "Subject 1, before enrolling in the clinical study", "experimental": "as §2"}}}
{"molecule": "C=CC(=O)Nc1cccc(Nc2nc(Nc3ccc(OCCOC)cc3)ncc2F)c1", "note": "[CC-292, N-(3-((5-fluoro-2-((4-(2-methoxyethoxy)phenyl)amino)pyrimidin-4-yl)amino)phenyl)acrylamide]", "values": [{"measurement": "EC50", "setting": "[1]", "value": 121, "unit": "nM"}]}
{"molecule": "Cc1nc(Nc2ncc(C(=O)Nc3c(C)cccc3Cl)s2)cc(N2CCN(CCO)CC2)n1", "note": "[Dasatinib]", "values": [{"measurement": "effect on psoriasis / skin", "setting": "psoriasis [2]", "value": "has not been reported to improve psoriasis"}]}
{"molecule": "CC#CC(=O)N1CCC[C@H]1c1nc(-c2ccc(C(=O)Nc3ccccn3)cc2)c2c(N)nccn12", "note": "[Formula (II), (S)-4-(8-amino-3-(1-(but-2-ynoyl)pyrrolidin-2-yl)imidazo[1,5-a]pyrazin-1-yl)-N-(pyridin-2-yl)benzamide]", "values": [{"measurement": "inhibition of in vitro EGFR phosphorylation", "setting": "EGFR", "value": "no inhibition"}, {"measurement": "EC50", "setting": "[1]", "value": 8.2, "unit": "nM"}, {"measurement": "metabolic processes in plasma, bile, and urine", "setting": "[3]", "value": "oxidation, glutathione binding, and hydrolysis"}, {"measurement": "glutathione binding and depletion", "setting": "[4]", "value": "binds to glutathione but does not deplete glutathione"}, {"measurement": "psoriasis skin symptoms, first month of therapy", "setting": "psoriasis [5]; Subject 1, CLL patient with severe psoriasis (~30% BSA), oral", "value": "some improvement"}, {"measurement": "psoriasis, first 6 months of treatment", "setting": "psoriasis [5]; Subject 1, oral", "value": "mostly resolved"}, {"measurement": "skin status by Cycle 10 (10 months)", "setting": "psoriasis [5]; Subject 1, oral", "value": "clear"}, {"measurement": "moderate-to-severe plaque psoriasis after start of treatment", "setting": "psoriasis [5]; Subject 2, similar clinical study", "value": "cleared quickly"}, {"measurement": "metabolizing CYP (loss of parent drug)", "setting": "CYP3A4", "value": "metabolized by CYP3A4"}, {"measurement": "respiratory function", "setting": "[6]", "value": "no treatment-related adverse effects"}, {"measurement": "in vivo potency at inhibiting expression of activation markers CD69 and CD86", "setting": "[7]", "value": "more potent at inhibiting expression of activation makers than ibrutinib"}, {"measurement": "oral bioavailability", "setting": "[8]", "value": "significant oral bioavailability"}, {"measurement": "unique human metabolite", "setting": "hepatocytes; hepatocytes of six species", "value": "No unique human metabolite was identified"}, {"measurement": "metabolites in hepatocytes", "setting": "hepatocytes; mouse, rat, dog, rabbit, monkey, human hepatocytes, 14C-labeled drug", "value": "two mono-oxidized metabolites and a glutathione conjugate"}, {"measurement": "drug-drug interaction potential through CYP enzymes", "setting": "CYP enzymes", "value": "very unlikely to cause clinical drug-drug interactions"}]}
{"molecule": "C=CC(=O)N1CCC[C@@H](n2nc(-c3ccc(Oc4ccccc4)cc3)c3c(N)ncnc32)C1", "note": "[Ibrutinib, 1-[(3R)-3-[4-amino-3-(4-phenoxyphenyl)-1H-pyrazolo[3,4-d]pyrimidin-1-yl]piperidin-1-yl]prop-2-en-1-one]", "values": [{"measurement": "EC50", "setting": "[1]", "value": 6.1, "unit": "nM"}, {"measurement": "antitumor activity", "setting": "hematologic malignancies; subjects with heavily pretreated non-Hodgkin lymphoma", "value": "substantial antitumor activity"}, {"measurement": "maximum tolerated dose (MTD)", "setting": "hematologic malignancies; within the tested dose range (through 840 mg)", "value": "No maximum tolerated dose (MTD) was apparent"}]}
{"molecule": "Cc1ccc(C(=O)Nc2ccc(CN3CCN(C)CC3)c(C(F)(F)F)c2)cc1C#Cc1cnc2cccnn12", "note": "[Ponatinib]", "values": [{"measurement": "effect on psoriasis / skin", "setting": "psoriasis [2]", "value": "causes an extreme degree of skin drying and induces an almost psoriasis-like disease"}]}
{"molecule": "Cc1ccc(NC(=O)c2ccc(CN3CCN(C)CC3)cc2)cc1Nc1nccc(-c2cccnc2)n1", "note": "[imatinib]", "values": [{"measurement": "effect on psoriasis / skin", "setting": "psoriasis [2]", "value": "may cause worsening of psoriasis"}]}
{"molecule": "etanercept", "values": [{"measurement": "response of psoriasis to earlier therapy", "setting": "psoriasis [9]", "value": "initially responded"}]}
